Results from patent US20230322706A1, “NOVEL BIARYL DERIVATIVE USEFUL AS DIACYLGLYCEROL ACYLTRANSFERASE 2 INHIBITOR, AND USE THEREOF” (LG CHEM, LTD., priority 2020, published 2023).
pIC50: −log10 of the molar value.

biological target: human DGAT2 (Homo sapiens (Human), UniProt Q96PD7); assay: Measurement of inhibitory effect against DGAT2 enzyme activity (SPA, Phospholipid FlashPlate, [14C]-TG production); format: biochemical; conditions: recombinant human DGAT2 membrane protein from Sf-21 cells; inhibition of [14C]-TG production; 37° C.
Source text: Experimental Example: Measurement of Inhibitory Effect Against DGAT2 Enzyme Activity
1. Preparation of DGAT2 Expression Vector
In order to prepare the pBacPAK9-DGAT2, which is DGAT2 expression vector, the human DGAT2 gene amplified by polymerase chain reaction (PCR) was cloned into the EcoR1 and Xho1 sites of the pBacPAK9 (clonctech) vector. The nucleotide sequence of the primers used in PCR was the forward primer 5′ […] and the reverse primer 5′ […]. The composition of the reaction solution was to contain 50 ng of cDNA clone (OriGene), 200 μM of dATP, dCTP, dTTP, dGTP, 200 nM of each primer, 1 unit of Tag DNA Polymerase (Toyobo), 1x PCR buffer, and the final volume was adjusted to 20 μl. The reaction conditions were denatured at 95° C. for 5 minutes, followed by 30 times of 94° C. for 20 seconds, 60° C. for 20 seconds, and 72° C. for 90 seconds, followed by further reaction at 72° C. for 7 minutes.
2. DGAT2 Expression and Preparation of Membrane Protein
Recombinant human DGAT2 protein was expressed in Sf-21 cells, which are insect cells, by using the BacPack baculovirus expression system (Clontech). The brief manufacturing process is as follows. First, the pBacPAK9-DGAT2 expression vector was transfected with BacPAK6 virus DNA (Bsu36I digest) into sf21 cells using Bacfectin to prepare a recombinant DGAT2 expressing baculovirus. The thus prepared baculovirus was infected with Sf-21 cells at 10 MOI (multiplicity of infection), and after 72 hours, infected insect cells were collected and membrane proteins were isolated. For membrane protein separation, the cell pellet was dissolved in a sucrose solution containing 250 mM sucrose, 10 mM Tris (pH 7.4), and 1 mM ethylenediamine-tetraacetic acid (EDTA), and then homogenized by using a dounce homogenizer, and the supernatant was taken by centrifuging at 600×g for 15 minutes, and centrifuged at 100,000×g for 1 hour to discard the supernatant, and the remaining pellet was resuspended in 20 mM HEPES buffer (pH 7.4). The prepared DGAT2 overexpressing membrane protein was dispensed in 100 μl and stored at −80° C. until use. Protein concentration was quantified by using the BCA Protein Assay Kit (Thermo Scientific).
3. Measurement of Inhibitory Effect Against DGAT2 Enzyme Activity
In vitro DGAT2 analysis was performed using a Phospholipid Flash Plate (PerkinElmer) based on the principle of SPA (Scintilation Proximity Assay). First, DGAT2 inhibition compounds serially diluted 5 times from 3 nM to 10 μM (final concentration, 1% DMSO) were mixed in a buffer solution containing 2 μg DGAT2-membrane protein and 20 mM HEPES, 20 mM MgCl2, 1 mg/mL BSA, 50 μM 1,2 sn-oleoyl glycerol (Sigma), put in a 96-well flash plate (FlashPlate) and reacted at 37° C. for 20 minutes, and then 1 μM [14C] ole oil CoA (PerkinElmer, NEC651050UC) was added to be a final volume of 100 μL and further reacted at 37° C. for 15 minutes. After the enzymatic reaction was completed, 100 μL of isopropanol was added, the plate was sealed with a film, and the plate was shaken slowly in a plate shaker. The next day, the amplified scintillation signal (cpm) in Topcounter (Packard) was measured to measure the degree of production of [14C]-labeled triacyl glycerol (TG) as a reaction product. The measured value when the compound was not treated was used as a positive control, and the measured value of the compound treated group was calculated as a relative % to measure the inhibition effect of the compound on TG production. The IC50 value, which is the concentration of the compound that inhibits TG production by 50%, was determined by treating the response value according to the compound concentration with a nonlinear regression curve using PRISM (Graphpad Inc.).

Chain of human DGAT2 (Q96PD7 whole entry): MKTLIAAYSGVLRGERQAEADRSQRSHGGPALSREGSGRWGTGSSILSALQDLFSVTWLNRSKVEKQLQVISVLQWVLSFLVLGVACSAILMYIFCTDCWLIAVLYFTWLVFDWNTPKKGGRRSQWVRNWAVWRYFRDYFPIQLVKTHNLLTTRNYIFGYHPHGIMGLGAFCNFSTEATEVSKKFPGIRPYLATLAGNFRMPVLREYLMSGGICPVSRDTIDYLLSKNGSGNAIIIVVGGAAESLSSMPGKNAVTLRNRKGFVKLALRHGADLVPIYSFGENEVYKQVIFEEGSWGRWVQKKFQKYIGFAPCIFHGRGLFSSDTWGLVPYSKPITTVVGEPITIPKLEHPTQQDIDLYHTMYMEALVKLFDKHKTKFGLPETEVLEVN

| Structure (SMILES) | pIC50 |
| --- | --- |
| CCOc1ccccc1Oc1cncc(-c2cncc(NC(=O)CCc3ccc(CC(=O)O)cc3)n2)c1 [Example 4, 2-(4-(3-((6-(5-(2-ethoxyphenoxy)pyridin-3-yl)pyrazin-2-yl)amino)-3-oxopropyl)phenyl)acetic acid] | 6.54 |
| CCOc1ccccc1Oc1cccc(-c2cncc(Nc3cccc(-c4cccc(CC(C)(C)C(=O)O)c4)n3)n2)n1 [Example 25, 3-(3-(6-((6-(6-(2-ethoxyphenoxy)pyridin-2-yl)pyrazin-2-yl)amino)pyridin-2-yl)phenyl)-2,2-dimethylpropanoic acid] | 6.35 |
| CCOc1ccccc1Oc1cccc(-c2cncc(NC(=O)Cc3ccc(OC(C)(C)C(=O)O)cc3)n2)c1 [Example 19] | 6.37 |
| CCOc1ccccc1Oc1cncc(-c2cncc(Nc3nccc(N4CCC[C@@H](C(=O)O)C4)n3)n2)c1 [Example 8, (R)-1-(2-((6-(5-(2-ethoxyphenoxy)pyridin-3-yl)pyrazin-2-yl)amino)pyrimidin-4-yl)piperidine-3-carboxylic acid] | 5.74 |
| CCOc1ccccc1Oc1cccc(-c2cncc(NC(=O)Cc3ccc(CC(C)(C)C(=O)O)cc3)n2)c1 [Example 15, 3-(4-(2-((6-(3-(2-ethoxyphenoxy)phenyl)pyrazin-2-yl)amino)-2-oxoethyl)phenyl)-2,2-dimethylpropanoic acid] | 7.89 |
| CCOc1cccnc1Oc1cccc(-c2cncc(NC(=O)C(C)(C)c3ccc(CC(C)(C)C(=O)O)cc3)n2)c1 [Example 29, 3-(4-(1-((6-(3-((3-ethoxypyridin-2-yl)oxy)phenyl)pyrazin-2-yl)amino)-2-methyl-1-oxopropane-2-yl)phenyl)-2,2-dimethylpropanoic acid] | 8.17 |
| CCOc1ccccc1Oc1cccc(-c2cncc(NC(=O)CCc3ccccc3)n2)n1 [Example 22, N-(6-(6-(2-ethoxyphenoxy)pyridin-2-yl)pyrazin-2-yl)-3-phenylpropanamide] | 5.68 |
| CCOc1ccccc1Oc1cccc(-c2cncc(NC(=O)Cc3ccc(CC(C)(C)C(=O)O)cc3)n2)n1 [Example 23, 3-(4-(2-((6-(6-(2-ethoxyphenoxy)pyridin-2-yl)pyrazin-2-yl)amino)-2-oxoethyl)phenyl)-2,2-dimethylpropanoic acid] | 7.21 |
| CCOc1cccnc1Oc1cccc(-c2cncc(NC(=O)Cc3ccc(CC(C)(C)C(=O)O)cc3)n2)c1 [Example 27, 3-(4-(2-((6-(3-((3-ethoxypyridin-2-yl)oxy)phenyl)pyrazin-2-yl)amino)-2-oxoethyl)phenyl)-2,2-dimethylpropanoic acid] | 8.13 |
| CCOc1ccccc1Oc1cccc(-c2cncc(Nc3nccc(N4CCC[C@@H](C(=O)O)C4)n3)n2)n1 [Example 24, (R)-1-(2-((6-(6-(2-ethoxyphenoxy)pyridin-2-yl)pyrazin-2-yl)amino)pyrimidin-4-yl)piperidine-3-carboxylic acid] | 5.13 |
| CCOc1ccccc1Oc1cccc(-c2cncc(NC(=O)CCc3ccc(OC(C)(C)C(=O)O)cc3)n2)c1 [Example 13, 2-(4-(3-((6-(3-(2-ethoxyphenoxy)phenyl)pyrazin-2-yl)amino)-3-oxopropyl)phenoxy)-2-methylpropanoic acid] | 6.48 |
| CCOc1cccnc1Oc1cccc(-c2cncc(NC(=O)CCc3ccc(C(C)(C)C(=O)O)cc3)n2)c1 [Example 26, 2-(4-(3-((6-(3-((3-ethoxypyridin-2-yl)oxy)phenyl)pyrazin-2-yl)amino)-3-oxopropyl)phenyl)-2-methylpropanoic acid] | 7.68 |
| CCOc1ccccc1Oc1cncc(-c2cncc(NC(=O)Cc3ccc(CC(=O)O)cc3)n2)c1 [Example 3, 2-(4-(2-((6-(5-(2-ethoxyphenoxy)pyridin-3-yl)pyrazin-2-yl)amino)-2-oxoethyl)phenyl)acetic acid] | 5.47 |
| CCOc1cccnc1Oc1cccc(-c2cncc(Nc3cccc(-c4cccc(CC(C)(C)C(=O)O)c4)n3)n2)c1 [Example 32, 3-(3-(6-((6-(3-((3-ethoxypyridin-2-yl)oxy)phenyl)pyrazin-2-yl)amino)pyridin-2-yl)phenyl)-2,2-dimethylpropanoic acid] | 7.15 |
| CCOc1ccccc1Oc1cncc(-c2cncc(NC(=O)Cc3ccc(CC(=O)OC)cc3)n2)c1 [Example 2, methyl 2-(4-(2-((6-(5-(2-ethoxyphenoxy)pyridin-3-yl)pyrazin-2-yl)amino)-2-oxoethyl)phenyl)acetate] | 7.57 |
| CCOc1ccccc1Oc1cncc(-c2cncc(NC(=O)CCc3ccccc3)n2)c1 [Example 1, N-(6-(5-(2-ethoxyphenoxy)pyridin-3-yl)pyrazin-2-yl)-3-phenylpropanamide] | 7.46 |
| CCOc1ccccc1Oc1cncc(-c2cncc(NC(=O)Cc3ccc(CC(C)(C)C(=O)O)cc3)n2)c1 [Example 7, 3-(4-(2-((6-(5-(2-ethoxyphenoxy)pyridin-3-yl)pyrazin-2-yl)amino)-2-oxoethyl)phenyl)-2,2-dimethylpropanoic acid] | 7.44 |
| CCOc1cccnc1Oc1cccc(-c2cncc(NC(=O)CCc3ccc(OC(C)(C)C(=O)O)cc3)n2)c1 [Example 28, 2-(4-(3-((6-(3-((3-ethoxypyridin-2-yl)oxy)phenyl)pyrazin-2-yl)amino)-3-oxopropyl)phenoxy)-2-methylpropanoic acid] | 6.68 |
| CCOc1cccnc1Oc1cccc(-c2cncc(Nc3nccc(N4CCC[C@@H](C(=O)O)C4)n3)n2)c1 [Example 31, (R)-1-(2-((6-(3-((3-ethoxypyridin-2-yl)oxy)pheny)pyrazin-2-yl)amino)pyrimidin-4-yl)piperidine-3-carboxylic acid] | 5.04 |
| CCOc1ccccc1Oc1cccc(-c2cncc(Nc3nccc(-c4ccc(CC(=O)O)cc4)n3)n2)c1 [Example 20, 2-(4-(2-((6-(3-(2-ethoxyphenoxy)phenyl)pyrazin-2-yl)amino)pyrimidin-4-yl)phenyl)acetic acid] | 5.41 |
| CCOc1cccnc1Oc1cccc(-c2cncc(Nc3nccc(O[C@H]4CC[C@H](C(=O)O)CC4)n3)n2)c1 [Example 33, (1r,4r)-4-((2-((6-(3-((3-ethoxypyridin-2-yl)oxy)phenyl)pyrazin-2-yl)amino)pyrimidin-4-yl)oxy)cyclohexane-1-carboxylic acid] | 5.47 |
| CCOc1ccccc1Oc1cncc(-c2cncc(NC(=O)CCc3ccc(C(C)(C)C(=O)OC)cc3)n2)c1 [Example 5, methyl 2-(4-(3-((6-(5-(2-ethoxyphenoxy)pyridin-3-yl)pyrazin-2-yl)amino)-3-oxopropyl)phenyl)-2-methylpropanoate] | 7.96 |
| CCOc1ccccc1Oc1cncc(-c2cncc(Nc3cccc(-c4cccc(CC(C)(C)C(=O)O)c4)n3)n2)c1 [Example 9, 3-(3-(6-((6-(5-(2-ethoxyphenoxy)pyridin-3-yl)pyrazin-2-yl)amino)pyridin-2-yl)phenyl)-2,2-dimethylpropanoic acid] | 6.80 |
| CCOc1ccccc1Oc1cccc(-c2cncc(NC(=O)C(C)(C)c3ccc(CC(C)(C)C(=O)O)cc3)n2)c1 [Example 18, 3-(4-(1-((6-(3-(2-ethoxyphenoxy)phenyl)pyrazin-2-yl)amino)-2-methyl-1-oxopropan-2-yl)phenyl)-2,2-dimethylpropanoic acid] | 7.66 |
| CCOc1ccccc1Oc1cccc(-c2cncc(Nc3nccc(O[C@H]4CC[C@H](C(=O)O)CC4)n3)n2)c1 [Example 21, (1r,4r)-4-((2-((6-(3-(2-ethoxyphenoxy)phenyl)pyrazin-2-yl)amino)pyrimidin-4-yl)oxy)cyclohexane-1-carboxylic acid] | 5.92 |
